pIC50: −log10 of the molar value. Structures can show the parent of a compound that is named as a salt.

The subject of one experiment is Zymosan Stimulated Macrophages (arachidonic acid release). Nature of the experiment: Test A: Inhibition of Arachidonic Acid Release from Zymosan Stimulated Macrophages. Format: cell-based, mouse (female MF1 mice). Particulars: Mus musculus, Macrophage, inhibition of arachidonic acid release, zymosan stimulated mouse peritoneal macrophages; tested at 100, 50, 20, 10, 5 and 1 μM; ≤100 μM considered active; read-out: Test A IC50. How it is done:
Test A was carried out in the following way:
Inhibition of Arachidonic Acid Release from Zymosan Stimulated Macrophages
Female MF1 mice (weighing 20 to 25 g) were killed using a rising concentration of CO2. The mice were laid on their backs and the abdomens wiped with 70% alcohol. The skin was pulled back, exposing the peritoneal wall. Medium A (5 ml) (see below) was injected into the peritoneal cavity of each mouse followed by approximately 1 ml of air using a 20 ml syringe and a 21G×40 mm needle in order to form a suspension of macrophage cells. The medium and cells were then removed using a 19G×40 mm needle. The resulting suspension was returned to a sterile beaker kept on ice. The extracts from all the mice were pooled and this pooled cell suspension was counted using a Coulter counter and adjusted to a final cell count of 1-1.3×10^6 cells/ml prior to labelling with [^3 H]-arachidonic acid. Typically five mice provided sufficient cells for each multiwell plate.
Sufficient [^3 H]-arachidonic acid in ethanol to give a final concentration of 1.6 μCi/ml (equivalent to 40 μCi/plate) was blown to dryness under nitrogen. The arachidonic acid was then resuspended in 1 or 2 ml of the cell suspension which was then mixed with the remainder of the cell suspension in a centrifuge bottle. The labelled cell suspension was then plated out into sterile plastic 96 flat-bottomed well plates (250 μl per well) and incubated overnight at 37° C. in a moist atmosphere of 5% CO2, 95% air.
The following day, non-adherent cells were removed by washing 3 times with sterile phosphate buffered saline (PBS). The adherent peritoneal macrophages were then cultured for a further 24 hours in the presence or absence of drugs, in medium B (see below) at 37° in a 5% CO2 atmosphere in order to measure the effects of drugs on the spontaneous release of arachidonic acid in the absence of stimulus. After this incubation, supernatants were removed to give media 1 and stored in sealed multi-well plates at 4° C. prior to scintillation counting. Drugs which potentiated spontaneous release of arachidonic acid (125% of controls) were deemed to be toxic at the concentration at which this phenomenon occurred. The supernatants were replaced by fresh medium C containing fresh drug and a stimulus. Three drugs were tested at six concentrations (100, 50, 20, 10, 5 and 1 μM) in replicates of four on each plate. The other wells contained controls consisting of a positive control (e.g. dexamethasone), medium (B) only and medium C only.
Incubation was then continued for a further 5 hours, whereupon the supernatants were collected to give media 2 and the adherent cells washed with PBS. The cells were then lysed with 100 μl of 0.1% TRITON® X100 in a 0.1% solution of bovine serum albumin in 0.9% saline and mechanically disrupted to give cell lysates. These supernatants (media 2) and cell lysates (Cells) were also stored in sealed multi-well plates at 4° C. prior to scintillation counting. 200 μl aliquots of media, or 100 μl aliquots of cells were counted using 2 ml of OPTIPHASE "HIGH SAFE" (Trademark of LKB) as scintillant.
The percentage of arachidonic acid released was calculated using the mean values for each group of 4 wells in the following equation. [formula]
The value for the arachidonic acid release in the absence of stimulus (spontaneous, cpm of media 2) from cells which had been exposed to neither stimulus nor drug was subtracted from all equivalent values (cpm media 2, stimulated with or without drug) to give the net stimulated release. The percentage inhibition of arachidonic acid release caused by a drug may then be calculated using the following equation. [formula]
Compounds of formula I were tested at six concentrations (100, 50, 20, 10, 5 and 1 μM) and IC50 values calculated. Compounds with IC50 values≤100 μM are considered to be active. Advantageous compounds have an IC50 value<50 μM.
Medium A (for peritoneal lavage) […]
Broadly, the pIC50 is the IC50 on a negative log10 scale, so that one unit is a factor of ten. Take `Clc1ccc(C2(CCNCCCn3ccnc3)OCCO2)cc1` [Example 32, N-{2-[2-(4-Chlorophenyl)-1,3-dioxolan-2-yl]ethyl}-3-(imidazol-1-yl)propylamine]: the pIC50 is 5.05.

With `CC(C)(CNCCCn1ccnc1)c1ccc(Cl)cc1` [Example 13, 2-(4-Chlorophenyl)-3'-(imidazol-1-yl)-2-methyldipropylamine dihydrochloride], the pIC50 was 5.05.

With `COc1ccc(OCC(C)(C)NCCCn2ccnc2)cc1` [Example 108, N-[2-(4-methoxyphenoxy)-1,1-dimethylethyl]-3-(imidazol-1-yl)propylamine dihydrochloride hydrate], the pIC50 is 4.00.

Regarding `CCCCCCS(=O)(=O)Cc1ccc(C(C)(C)NCCCn2ccnc2)cc1` [Example 25, N-(1-[4-(Hexylsulphonylmethyl)phenyl]-1-methylethyl)-3-(imidazol-1-yl)propylamine dihydrochloride], the pIC50 is 4.96.

Consider `CC(C)(NCCCn1ccnc1)c1ccc(Cl)c(NC(=O)c2ccccc2)c1` [Example 73, 2'-chloro-5'-{1-[3-(imidazol-1-yl)propylamino]-1-methylethyl}benzanilide], for which the negative logarithm of the IC50 (pIC50) was 4.60.

`CC(C)(NCCCn1cnc(CCNS(=O)(=O)c2ccccc2)c1)c1ccc(Cl)cc1` [Example 54, N-[2-(1-{3-[1-(4-chlorophenyl)-1-methylethylamino]-propyl}imidazol-4-yl)ethyl]benzenesulphonamide]: the pIC50 is 5.15.

As for `CC(C)(NCCCn1ccnc1)c1ccc(CC(=O)NCc2ccc(Cl)cc2)cc1` [Example 30, N-(4-Chlorobenzyl)-4-{1-[3-(imidazol-1-yl)propylamino]-1-methylethyl}phenylacetamide], the pIC50 was 4.70.

Take `CCCC(CCC)(NCCCn1ccnc1)c1ccc(CC(=O)NC)cc1` [Example 34, 4-{1-[3-(Imidazol-1-yl)propylamino]-1-propylbutyl)phenyl-N-methylacetamide]: the pIC50 is 4.12.

For `CC(C)(COc1ccccc1)NCC(O)Cn1ccnc1` (centres unmarked) [Example 53, 3-(Imidazol-1-yl)-1-(2-phenoxy-1,1-dimethylethylamino) propan-2-ol], the pIC50 was 4.00.

In the case of `CC(C)(NCCCn1ccnc1)c1ccc(CCOCc2ccccc2)cc1` [Example 27, N-{1-[4-(2-Benzyloxyethyl)phenyl]-1-methylethyl}-3-(imidazol-1-yl)propylamine], the pIC50 was 4.15.

For the compound `CSc1ccc(OCC(C)(C)NCCCn2ccnc2)cc1` [Example 33, N-[1,1-Dimethyl-2-(4-methylthiophenoxy)ethyl]-3-(imidazol-1-yl)propylamine dihydrochloride hydrate], the pIC50 was 4.49.

Take `COc1ccccc1CCC(C)(C)NCCCn1ccnc1` [Example 36, 3'-(Imidazol-1-yl)-3-(2-methoxyphenyl)-1,1-dimethyldipropylamine]: the negative-log IC50 (pIC50) was 4.22.

For the compound `CC(C)(NCC(O)Cn1ccnc1)c1ccc(C(=O)NC2CCCCC2)cc1` (centres unmarked) [Example 48, N-Cyclohexyl-4-{1-[2-hydroxy-3-(imidazol-1-yl)propylamino]-1-methylethyl}benzamide], the pIC50 is 4.15.

For `CC(C)(COc1ccccc1)NCCCn1ccnc1` [Example 35, 3-(Imidazol-1-yl)-N-(1,1-dimethyl-2-phenoxyethyl) propylamine], the pIC50 was 4.33.

For the compound `CC(C)(COC(=O)c1ccccc1)NCCCn1ccnc1` [Example 78, 2-[3-(imidazol-1-yl)propylamino]-2,2-dimethylethyl benzoate dihydrochloride], the negative logarithm of the IC50 (pIC50) is 4.04.

Consider `CC(C)(NCCCn1cnc(CCNC(=O)c2ccccc2)c1)c1ccc(Cl)cc1` [Example 55, N-[2-(1-(3-[1-(4-chlorophenyl)-1-methylethylamino]propyl}imidazol-4-yl)ethyl]benzamide], for which the pIC50 was 5.15.

Consider `CCCCCCNC(=O)Cc1ccc(C(C)(C)NCC(O)Cn2ccnc2)cc1` (centres unmarked) [Example 47, N-Hexyl-4-{1-[2-hydroxy-3-(imidazol-1-yl)propylamino]-1-methylethyl}phenylacetamide], for which the pIC50 was 4.19.

On to `Cc1nccn1CCCNCCCc1ccc(Cl)cc1` [Example 12, 3-(4-Chlorophenyl)-3'-(2-methylimidazol-1-yl)dipropylamine], for which the pIC50 is 5.15.

Turning to `Cc1ccc(OCCNCCCn2ccnc2)cc1C` [Example 6, N-[2-(3,4-Dimethylphenoxy)ethyl]-3-(imidazol-1-yl)propylamine], the pIC50 is 4.70.

On to `OCCN(CCCn1ccnc1)CCOc1ccc(Cl)cc1` [Example 66, 2-{N-[2-(4-chlorophenoxy)ethyl]-N-[3-(imidazol-1-yl)propyl]amino}ethanol], for which the pIC50 was 4.62.

`CC(C)(CNCCCn1ccnc1)Sc1ccc(Cl)cc1` [Example 18, 2-(4-Chlorophenylthio)-3'-(imidazol-1-yl)-2-methyldipropylamine dihydrochloride]: the pIC50 is 4.70.

Take `c1ccc(CCCNCCCCCn2ccnc2)cc1` [Example 81, N-(3-phenylpropyl)-5-imidazol-1-ylpentylamine 0.75 hydrate]: the pIC50 is 4.19.

Consider `CC(C)(COc1ccccc1)NCCCn1cnc(CCNC(=O)c2ccccc2)c1` [Example 76, N-(2-{1-[3-(1,1-dimethyl-2-phenoxyethylamino)-propyl]imidazol-4-yl}ethyl)benzamide], for which the pIC50 was 4.80.

With `CC(C)(COc1ccc(C(F)(F)F)cc1)NCCCn1ccnc1` [Example 39, N-{2-[4-(Trifluoromethyl)phenoxy]-1,1-dimethylethyl}-3-(imidazol-1-yl)propylamine dimaleate], the pIC50 was 6.70.

As to `CC(C)(COc1ccc(F)cc1)NCCCn1ccnc1` [Example 40, N-[2-(4-Fluorophenoxy)-1,1-dimethylethyl]-3-(imidazol-1-yl)propylamine dimaleate hemihydrate], the pIC50 is 6.52.

Turning to `CCC(CC)(NCCCn1cnc(CCNC(=O)c2ccc(OC)cc2)c1)c1ccccc1` [Example 61, N-(2-{1-[3-(1-ethyl-1-phenylpropylamino)propyl]-imidazol-4-yl}ethyl)-4-methoxybenzamide], the pIC50 is 5.05.

For `CC(C)(NCc1ncc[nH]1)c1ccc(Cl)cc1` [Example 83, 1-(4-chlorophenyl)-N-(imidazol-2-ylmethyl)-1-methylethylamine], the negative logarithm of the IC50 (pIC50) was 4.05.

Regarding `CC(C)(NCCCn1ccnc1)c1ccc(CCNC(=O)c2ccccc2)cc1` [Example 57, N-[2-(4-{1-[3-(imidazol-1-yl)propylamino]-1-methylethyl}phenyl)-ethyl]benzamide], the pIC50 was 4.68.

`CCCCS(=O)(=O)Oc1ccc(OCCNCCCn2ccnc2)cc1` [Example 67, 4-{2-[3-(imidazol-1-yl)propylamino]ethoxy}phenyl 1-butane sulphonate]: the pIC50 is 4.70.

For the compound `CC(C)(COc1ccc(Cl)cc1)NCC(O)Cn1ccnc1` (centres unmarked) [Example 52, 1-[2-(4-Chlorophenoxy)-1,1-dimethylethylamino]-3-(imidazol-1-yl)propan-2-ol], the pIC50 is 4.64.

`c1ccc(COc2ccc(OCCNCCCn3ccnc3)cc2)cc1` [Example 10, N-[2-(4-Benzyloxyphenoxy)ethyl]-3-(imidazol-1-yl)propylamine dihydrochloride hydrate]: the pIC50 was 4.44.

Still in this experiment, the particulars now being: inhibition of arachidonic acid release, zymosan stimulated mouse peritoneal macrophages; tested at 100, 50, 20, 10, 5 and 1 μM; ≤100 μM considered active; read-out: Test A IC50.
In the case of `CC(C)(NCC(O)Cn1ccnc1)c1ccc(Cl)cc1` (single isomer, unassigned; (+)) [Example 45, (+)-1-[1-(4-Chlorophenyl)-1-methylethylamino]-3-(imidazol-1-yl)propan-2-ol], the pIC50 is 3.77.

For the origin of these results see patent publication US5780642A, “Imidazole derivatives as therapeutic agents” (KNOLL Aktiengesellschaft, priority 1993, dated 1998).
